# Like-named read-outs stand apart in the source and are kept apart here.
# How the values were obtained:
# [1] = Bidirectional permeability across ex vivo porcine intestinal segments; format: in vitro ADME, pig; conditions: pig; for recovery: pH 7.4, porcine intestinal segments; for Papp A→B / Papp B→A: pH 7.4, all porcine segments (duodenum, jejunum, ileum); for Papp A→B: A to B, read-out: Papp (A to B), range over porcine segments; for Papp B→A: B to A, read-out: Papp (B to A), range over porcine segments
# Description: (§1) In accordance with the NC3R framework on the reduction and refinement of animals in research; samples were only obtained from healthy adult pig cadavers being used for the purposes of other research projects. The work was conducted according to United Kingdom Home Office guidelines (Animal Scientific Procedures Act […]) and following local AWERB approval (ref 000057). Regional sections from the duodenum (first 25 cm from the stomach), jejunum (150 cm from the stomach) and ileum (first 50 cm back from the ileocecal valve) were resected from pig cadavers (Supplementary Figure S2). Using tweezers the serosa and muscularis propria (muscle layers) were carefully peeled away leaving the mucosa. Sections were washed in PBS, cut to fit the Transwell® inserts (Corning Life Sciences) and transferred in 6-well plates. All tissue was kept on the ice and used within a 24 h time period, post-collection.
# (§2) Transport studies were conducted using standard, widely accepted protocols as previously described ([Volpe, 2008]). Transport markers were prepared in transport buffer (HBSS, 25 mM HEPES, pH 7.4). Dimethyl sulfoxide (DMSO) was used to aid solubilisation of poorly soluble drugs at a maximum final concentration of 0.1% (v/v) used in all transport experiments. TEER was measured before and after each experiment to ensure barrier integrity during the experiments and as a control measure of experimental validity. Inserts were transferred to fresh plates containing transport buffer (apical/basolateral volumes were 0.4/1.2 mL and 0.5/6 mL for Transwell® and Snapwell® inserts, respectively). Donor solutions were added to the relevant compartments and the inserts were then incubated at 37°C with shaking at 150 rpm and sampled at intervals of 30 min or 1 h for 1–2 h. Apparent permeability coefficients (Papp) were calculated according to Eq. 2:
# (§3) Where dQ/dt is the flux of the compound being investigated (μM s-1), A is the exposed surface area of the insert/scaffold (cm^2) and C0 is the concentration in the apical compartment at t = 0 (μM).
# (§4) Compound recovery following permeability assessment were calculated according the following Eq. 3:
# (§5) (3) Recovery (%)=[CR(final)×VR(final))×100/(CD(initial)×VD(initial)]
# (§6) Where CD and CR are the donor and receiver compartment concentrations, VD and VR are the donor and receiver compartment volumes at t = 0 (initial) or the end of the experiment (final).
# (§7) All HPLC was performed using a Kinetix XB-C18 5 μm, 100 Å pore size, 150 mm × 4.56 mm column (with a guard column) on an Agilent 1100 HPLC system. […] Samples were analyzed using gradient runs with Milli-Q dH2O, 0.5% TFA (eluent A) and acetonitrile, 0.5% TFA (eluent B).
# [2] = Bidirectional permeability across Caco-2 monolayers on Transwell inserts; format: in vitro ADME, human; conditions: human, Caco-2 on Transwell; for Papp A→B: apical to basolateral; for Papp A→B / Papp B→A: pH 7.4, mean (±SD); for Papp B→A: basolateral to apical
# Description: (§8) Caco-2 (used within 20 passages throughout the study) was obtained from the Clinical Pathology Laboratory, Queens Medical Centre, Nottingham and are available from ATCC. They were cultured in DMEM (Gibco) supplemented with 10% (v/v) foetal calf serum (FCS), 2 mM L-Glutamine solution, 1% (v/v) antibiotic/antimycotic solution (Gibco; final concentrations of […] streptomycin sulfate and 25 μgmL^-1 amphotericin B) at 37°C, 5% CO2 in 95% relative humidity (RH). Cells were cultured to around 80% confluence before harvesting cells by passaging with Trypsin/EDTA (Sigma Aldrich). Cell culture media was replaced every 2 days. For the initial evaluation of the scaffold compatibility, Collagen type I and untreated nanofibrous scaffolds were mounted in 24-well Cell Crown^TM inserts (Scaffdex). The mounted inserts were then placed in 12-well culture plates and seeded with 50,000 cells in 200 μL per insert. An additional 1 mL culture media was added to the well of the plate which ensured the insert were adequately surrounded and bathed in culture media. Following 24 h of culture at 37°C, 5% CO2, the PrestoBlue viability assay was carried out according to manufacturer’s instructions. In brief, a working solution of 10% (v/v) was prepared from the stock PrestoBlue solution in HBSS and sterile filtered using a 0.2 μm pore filter. Samples were washed three times with pre-warmed PBS and the working solution of PrestoBlue solution applied to the upper chamber of the inserts. Following a 30 min incubation period at 37°C, 5% CO2 with shaking at 150 rpm, 100 μL aliquots were taken from each sample and dispensed in triplicate into a black 96-well plate. The fluorescence of the samples was determined using a plate reader (Tecan Infinite 200, Tecan, United Kingdom) at 530/590 nm (excitation/emission wavelengths). Subsequent viability assays were conducted on day 3 and day 6 of culture to provide an initial assessment of the benefit of the surface treatments on cell adhesion and proliferation. To evaluate barrier formation, Snapwell® hanging inserts (6-well; Corning Life Sciences) were employed as unlike the CellCrown^TM inserts, the Snapwell® hanging inserts provided discrete apical and basolateral chambers in a 6-well plate formate appropriate for assessing barrier formation. The existing polycarbonate membrane on the securing clip of the Snapwell® insert were removed with a scalpel and the nanofiber scaffold affixed securely to the hanging insert by means of the securing clip (Supplementary Figure S1). Cells were seeded using the same cell density (178,000 cells/cm^2) as had been previously optimized for Caco-2 Transwell® cultures ([Hubatsch et al., 2007]). A cell suspension containing 200,000 cells in 500 μL were seeded onto the upper chamber of the Snapwell® inserts and cultured for 15–21 days at 37°C, 5% CO2 in air prior for TEER evaluation and for permeability tests.
# as §2, with “2: […]” for “2:”
# [3] = Bidirectional permeability across Caco-2 cultures on collagen-coated PET nanofibrous scaffolds; format: in vitro ADME, human; conditions: human, Caco-2 on nanofiber scaffolds, pH 7.4, mean (±SD)
# Description: (§9) Polyethylene terephthalate flakes (food grade; were procured from recycled plastic bottles and processed in-house) were dissolved in a 1:1 solution of dichloromethane and trifluoroacetic acid (overnight with stirring) and the polymer solution transferred into a syringe fitted with a blunt needle (18 gauge spinneret) attached to a syringe pump (Harvard Apparatus, United Kingdom). Electrospinning was conducted at a flow rate of 0.5 mL/hr at 14 kV voltage (Glassman High Voltage Inc., Series EL, Glassman Europe Ltd., United Kingdom; Supplementary Figure S1). The fibers were collected on a grounded static plate or rotating collector (a tip-collector distance of 15 cm). The scaffolds were removed with the aid of 70% (v/v) IMS and allowed to air dry at room temperature (RT).
# (§10) The nanofibrous scaffolds were surface coated with type I bovine collagen (Sigma-Aldrich). For type I bovine collagen coating, 150 μL of collagen solution (stock and working concentrations 3.1 mg/mL and 31 μg/mL, respectively) was gently pipetted ensuring adequate coverage of the entire scaffold. Samples were incubated at RT under aseptic conditions for 1–2 h. Any remaining collagen solution was aspirated and the scaffolds washed with PBS before cell seeding. Control scaffolds included PET nanofibers with no surface treatment.
# as §8, with “S1).” for “S1). Cells were seeded using the same cell density (178,000 cells/cm^2) as had been previously optimized for Caco-2 Transwell® cultures ([Hubatsch et al., 2007]). A cell suspension containing 200,000 cells in 500 μL were seeded onto the upper chamber of the Snapwell® inserts and cultured for 15–21 days at 37°C, 5% CO2 in air prior for TEER evaluation and for permeability tests.”
# [4] = test system: Caco-2 cultures on nanofibrous scaffolds; assay: as above; format: in vitro ADME, human
# Description: as §9, §10
# as §8, with “S1).” for “S1). Cells were seeded using the same cell density (178,000 cells/cm^2) as had been previously optimized for Caco-2 Transwell® cultures ([Hubatsch et al., 2007]). A cell suspension containing 200,000 cells in 500 μL were seeded onto the upper chamber of the Snapwell® inserts and cultured for 15–21 days at 37°C, 5% CO2 in air prior for TEER evaluation and for permeability tests.”
# [5] = test system: porcine intestinal tissue; conditions: uncorrected Papp; ref Westerhout et al. (2014); cited from earlier work
# [6] = test system: porcine intestinal segments; assay: Bidirectional permeability across ex vivo porcine intestinal segments; format: in vitro ADME, pig
# Description: as §1, §2, §3, §4, §5, §6, §7
# [7] = test system: human jejunal; conditions: ref Sjöberg et al. (2013), Rozehnal et al. (2012), cited from earlier work
# [8] = test system: Caco-2 monolayers on Transwell®; assay: Bidirectional permeability across Caco-2 monolayers on Transwell inserts; format: in vitro ADME, human; conditions: Caco-2 on Transwell, pH 7.4, mean (±SD)
# Description: as §8
# as §2, with “2: […]” for “2:”
# [9] = test system: Caco-2 monolayers; parameters: method as in Artursson et al., 1993, 2001; conditions: ref Artursson et al., 1993, 2001; cited from earlier work
compound,measurement,setting,value
"CC(C)NCC(O)COc1ccc(CC(N)=O)cc1 (stereo not drawn) [ATN, Atenolol]",recovery,[1]; read-out: average recovery,80%
same,recovery,[1]; read-out: recovery (range),70 to 95%
"CC(C)NCC(O)COc1cccc2ccccc12 (stereo not drawn) [PRN, Propranolol]",Papp A→B,[2],30.7 ×10⁻⁶ cm/s
same,Papp B→A,[2],32 ×10⁻⁶ cm/s
same,Papp A→B,[3]; apical to basolateral,86.3 ×10⁻⁶ cm/s
same,Papp B→A,[3]; basolateral to apical,75.1 ×10⁻⁶ cm/s
same,increase in permeability over Transwell cultures,[4]; nanofiber based culture vs Transwell Caco-2,more than a two-fold increase
same,Papp,[5],0.42 ×10⁻⁶ cm/s
same,recovery,[1]; read-out: average recovery,58%
same,recovery,[1]; read-out: recovery (range),35 to 75%
same,Papp A→B,[1],7.76 to 9.6 ×10⁻⁶ cm/s
same,Papp B→A,[1],1.85 to 5.5 ×10⁻⁶ cm/s
"COC(=O)c1ccccc1-c1c2ccc(=N)cc-2oc2cc(N)ccc12 [Rho-123, rhodamine 123]",efflux ratio at 10 µM,"[2]; pH 7.4, B to A / A to B",4.6
same,Papp A→B,[2],0.82 ×10⁻⁶ cm/s
same,Papp B→A,[2],3.8 ×10⁻⁶ cm/s
same,active efflux,[4]; 3D nanofiber based cultures,not detectable
same,recovery,[1]; read-out: recovery (range),37 to 54%
same,Papp A→B,[1],5.6 to 7.6 ×10⁻⁶ cm/s
same,Papp B→A,[1],1.8 to 3.6 ×10⁻⁶ cm/s
same,active efflux,[6]; porcine tissue segments,not detectable
OC[C@@H](O)[C@@H](O)[C@H](O)[C@H](O)CO [mannitol],human jejunal Papp,[7]; second listed value,5.56 ± 2.21 × 10^-6 cm s^-1
lucifer yellow [LY],Papp (A to B),[8]; apical to basolateral,0.30 (±0.13) × 10^-6 cm s^-1
same,Papp (B to A),[8]; basolateral to apical,0.66 (±0.23) × 10^-6 cm s^-1
same,Papp (A to B),"[4]; Caco-2 on nanofiber scaffolds, apical to basolateral, pH 7.4, mean (±SD)",7.14 (±0.4.53) × 10^-6 cm s^-1
same,Papp (B to A),"[4]; Caco-2 on nanofiber scaffolds, basolateral to apical, pH 7.4, mean (±SD)",8.51 (±6.61) × 10^-6 cm s^-1
same,Papp (A to B),[6]; porcine duodenal section,4.66 (±1.19) × 10^-6 cm s^-1
same,Papp (B to A),[6]; porcine duodenal section,2.01 (±0.85) × 10^-6 cm s^-1
same,Papp (A to B),[6]; porcine ileal section,5.58 (±3.93) × 10^-6 cm s^-1
same,Papp (B to A),[6]; porcine ileal section,3.80 (±3.46) × 10^-6 cm s^-1
same,Papp (A to B),[6]; porcine jejunal section,5.71 (±1.50) × 10^-6 cm s^-1
same,Papp (B to A),[6]; porcine jejunal section,4.31 (±2.58) × 10^-6 cm s^-1
same,human jejunal Papp,[7]; first listed value,4.02 ± 2.20 × 10^-6 cm s^-1
polyethylene glycols,fold lower permeability in Caco-2 monolayers compared to human in vivo,[9],~100 fold

# From PMC6524416, “Nanofibrous Scaffolds Support a 3D in vitro Permeability Model of the Human Intestinal Epithelium” (Frontiers in Pharmacology, 2019)
